Laboratory results published in patent US7612073B2, “Methods of administering tetrahydrobiopterin, associated compositions, and methods of measuring” (Biomarin Pharmaceutical Inc., priority 2007, dated 2009).
Entries after “also recorded” stand apart in the source; their conditions may differ.

Assays:
[1] = water adsorption (hygroscopicity) of crystal forms; format: physicochemical; conditions: dihydrochloride
[2] = design: species or system rats and monkeys; conditions: rat, monkey, in vivo
From the text: Such variability in absorption of BH4 was also shown in a study described herein on the effect of food on the bioavailability of BH4 in healthy humans.

physchem [3] = format: physicochemical
From the text: Although there is ample literature describing increased bioavailability in fed conditions, this food effect is typically seen with lipophilic (i.e., lipid soluble) water-insoluble drugs and not usually with high water soluble active substance such as BH4. The usual explanation for increases in bioavailability under fed conditions for lipophilic compounds is that high fat meals help solubilize the drug since “like dissolves like” and this makes it available for absorption. Another possible explanation is that high fat meals stimulate the secretion of bile acids which are natural bio-surfactants that help solubilize and emulsify the fats we eat to aid their digestion. These bile acids are also thought to solubilize water-insoluble compounds thereby making them available for absorption. […] Therefore the enhancement of its bioavailability by high fat, high-energy meals is not consistent with such known mechanism.

[4] = relative bioavailability of dissolved vs intact tablets and effect of food in healthy subjects; format: in vivo, human
From the text: The primary objectives of the study were: (1) to evaluate the relative bioavailability of tetrahydrobiopterin (BH4, sapropterin dihydrochloride) when administered after dissolution of tablet(s) in water or administered as intact tablet(s); (2) to compare the effect of food on the bioavailability of BH4 in healthy subjects. The secondary objective of the study was to assess the safety and tolerability of single oral doses of BH4 in healthy subjects.
This study was an open-label, randomized, three-treatment, six-sequence, three-period crossover study in which 30 subjects were to complete 3 single-dose dosing periods and were randomized to one of six sequence groups (Groups 1, 2, 3, 4, 5, and 6): […]
where all dosing groups received BH4 10 mg/kg orally as follows: a: administered after dissolution of tablet(s) in water given in fasting under fasting conditions b: administered as intact tablet(s) given in fasting under fasting conditions c: administered as intact tablet(s) given 30 minutes after beginning to ingest a high-calorie, high-fat meal in fed conditions Each subject received a single dose of 10 mg/kg of BH4 during each treatment period. A washout period of at least seven days separated each dose administration. A post-study assessment was performed 5-7 days after discharge of the third treatment period. Blood samples for Pharmacokinetic (PK) analysis were drawn at scheduled collection times during each study period: within 30 minutes prior to dose, and 0.5, 1.0, 1.5, 2.0, 2.5, 3.0, 3.5, 4.0, 5.0, 6.0, 8.0, 10.0, 12.0, 18.0, and 24.0 hours post-dose.
Blood (plasma) pharmacokinetic (PK) characteristics were assessed after each dose of study medication. All subjects remained seated in an upright position for 4 hours post-dose. The blood samples were drawn within 30 minutes prior to dose and at 0.5, 1.0, 1.5, 2.0, 2.5, 3.0, 3.5, 4.0, 5.0, 6.0, 8.0, 10.0, 12.0, 18.0, and 24.0 hours post dose. Samples were collected in appropriately labeled 6 mL K2-EDTA purple top Vacutainer® tubes. Blood samples were centrifuged at approximately 3000 rpm at 4° C. for 10 minutes. From the resulting plasma, exactly 1 mL was removed from each sample using a pipet, and placed into an aliquot tube containing 0.1% w/v dithioerythritol. The sample was capped and vortexed for approximately 10 seconds using a VWR Mini Vortexer at speed 6. After completion of these steps, the sample was flash frozen in an isopropyl/dry ice bath and placed in a −70° C. freezer pending analysis.
Pharmacokinetic (PK) analysis of plasma BH4 concentration-time data was performed using non-compartmental methods to obtain estimates of the following PK parameters: • Peak plasma concentration (Cmax) and time to peak concentration (Tmax), obtained directly from the data without interpolation; • λz, the apparent terminal elimination rate constant, determined by log-linear regression of the terminal plasma concentrations; • Area under the plasma concentration-time curve from time zero to the time of last measurable concentration [AUC(0-t)], calculated by the linear trapezoidal method; • The apparent elimination half-life (t½), calculated as 0.693/λz; • Area under the plasma concentration-time curve from time 0 to infinity [AUC(inf)] where AUC(inf)=AUC(0-t)+Ct/λz and Ct is the last measurable concentration. Estimation of Absorption Rate […]
Comparison of the pharmacokinetic parameters Cmax, AUC(0-t), and AUC(inf) for BH4 was conducted using an analysis of variance (ANOVA) model with sequence, subject within sequence, treatment, and period as the classification variables using the natural logarithms of the parameters as the dependent variables. The comparisons of interest were between the dissolved and intact tablet in the fasted state and the intact tablet in the fed and fasted states.

[5] = rat, radioactive markers in urine
physchem [6] = format: physicochemical; conditions: for Estimated t1/2 Based on t1/2 Obtained at pH 3 (Min) / half-life: buffer
Protocol: However, administration as a solid or semi-solid dosage form and/or with a high-fat meal may maximize bioavailability by increasing the residence time of BH4 in the acidic milieu of the stomach and upper gastrointestinal tract (GIT) where BH4 is chemically stable. […] At pH 3.1, which is within realm of the typical pH of the stomach in normal volunteers, the stability of BH4 at a concentration of 1 mg/mL is over 3 hours. The chemical stability of BH4 may further increase when the pH of the stomach drops below pH 3.1. Therefore prolonged stomach residence time provides intact drug to the stomach wall for absorption, whereas rapid emptying into the intestine degrades BH4 and is thus not available to be absorbed.
In general, the objective of this study was to evaluate the stability of BH4 in buffer solutions ranging in pH from pH 1 to 7 (See Table 15) and in the presence and absence of antioxidants and with or without inert gas in the reaction solutions (See Table 16).
The stability of BH4 is expected to be temperature-dependent. Therefore, the compound stability was evaluated at 2-8° C., 25° C., 30° C. and 37° C. to support the determination of predictive long-term shelf lives for the compound at different temperatures. Determination of the stability of the compound at the physiologic temperature of 37° C. provides data to support the estimation of the stability lifetime of a formulated oral dosage form in the absorptive regions of the GI tract.
Based on this approximation, pH 1.2 to pH 3 solutions were sampled weekly initially and sampling time corrections were made if necessary after the first 2 data points were collected.
Studies were conducted in pH 1-7 buffer solutions and at 5° C., 25° C., 30° C. and 37° C.

[7] = safety and tolerability of single oral doses of BH4 in healthy subjects; format: in vivo, human
Protocol: Safety was evaluated for all subjects who take at least one dose of BH4.
Safety was evaluated by recording the incidence of adverse events, changes in 12-lead ECG parameters, vital signs and physical examination results, and changes in baseline in laboratory test values.
In this study, an adverse event (AE) was defined as any untoward medical occurrence in a subject or clinical investigation subject administered BH4, at any dose, whether or not it has a causal relationship with the event. An AE can therefore be any unfavorable and unintended sign (including an abnormal laboratory finding), symptom, or disease temporally associated with the use of BH4, whether or not related to BH4. This definition included intercurrent illnesses or injuries and exacerbation (increase in frequency, severity or specificity) of pre-existing conditions.
A serious adverse event (SAE) was defined as any AE that has at least one of the following outcomes: […]

[8] = pharmacokinetics of sapropterin after a single oral administration in cynomolgus monkeys; format: in vivo, female cynomolgus monkeys; conditions: monkey, 10 mg/kg oral
Protocol: A single dose of sapropterin (10 mg/kg) was administered orally to female cynomolgus monkeys (3/group) under fasting conditions.

For `C[C@H](O)[C@H](O)[C@H]1CNc2nc(N)[nH]c(=O)c2N1.Cl.Cl` [Polymorph F, (6R)-L-erythro-tetrahydrobiopterin dihydrochloride], the “water content adsorbed (hygroscopicity)” value [1] was “about 3 percent by weight”.

With `C[C@H](O)[C@H](O)[C@H]1CNc2nc(N)[nH]c(=O)c2N1.Cl.Cl` [Polymorph K, (6R)-L-erythro-tetrahydrobiopterin dihydrochloride] the “water content adsorbed (hygroscopicity)” value [1] was “about 2.0 percent by weight”.

With `C[C@H](O)[C@H](O)[C@H]1CNc2nc(N)[nH]c(=O)c2N1` [BH4, 6R-(L-erythro)-5,6,7,8-tetrahydrobiopterin] the “BH4 absorbed in the gut” value [2] was 8-11%, the solubility (physchem [3]) was over 1000 mg/mL and the “median and range for Tmax, dissolved vs intact tablets” value ([4]; 10 mg/kg oral, fasted) was “essentially the same”. The “upper limits of 90% confidence intervals of intact-to-dissolved ratios” value ([4]; 10 mg/kg oral, fasted) was “greater than 125%”, the “increase in the extent of absorption, intact tablet compared to dissolved tablet” value ([4]; 10 mg/kg oral, healthy subjects) was about 20% and the “average increase in Cmax and AUC, intact tablet relative to dissolved tablets” value ([4]; fasted conditions) was 20%. The “increase in Cmax and AUC after a high fat/high calorie meal” value ([4]; intact tablet) was “approximately 30%”, the “median and range for Tmax, fed vs fasted conditions” value ([4]; intact tablet 10 mg/kg) was “essentially the same” and the “upper limits of 90% confidence intervals of fed-to-fasted ratios” value ([4]; intact tablet 10 mg/kg) was “greater than 125%”. The “increase in Cmax and AUC after a high fat/high calorie meal” value ([4]; tablet dissolved in water) was about 80%, the “rate of GI absorption” value [5] was 8.8% and the “dependence of rate of degradation of BH4” value (physchem [6]) was “concentration-dependent”. For the same molecule, the “effect of sparging on stability of BH4” value (physchem [6]) was “substantially enhanced the stability”, the “stability of BH4 at pH 3.1” value (physchem [6]; 1 mg/mL, pH 3.1) was “over 3 hours” and the “Estimated t1/2 Based on t1/2 Obtained at pH 3 (Min)” value (“Estimated t1/2 Based” below) (physchem [6]; pH 2) was 177690.0 (123.4 days) Min. For the same molecule, the “Estimated t1/2 Based” value (physchem [6]; pH 3) was 17769.0 (12.34 days) Min, the half-life (physchem [6]; pH 3) was 12.3 days and the half-life (physchem [6]; pH 3.1) was 12.3 days. The “Estimated t1/2 Based” value (physchem [6]; pH 4) was 1776.9 (1.23 days) Min, the “Estimated t1/2 Based” value (physchem [6]; pH 5) was 177.7 (0.12 days) Min and the “Estimated t1/2 Based” value (physchem [6]; pH 6) was 17.7 (0.01 days) Min. For the same molecule, the half-life (physchem [6]; pH 6.8) was about 0.0104 days, the “Estimated t1/2 Based” value (physchem [6]; pH 7) was 1.8 Min and the “study exit assessments, ECG and physical examination evaluations” value ([7]; human, in vivo) was “no clinically significant findings”. For the same molecule, the “adverse events assessed as mild” value ([7]; of 9 AEs) was 8 AEs, the “adverse events assessed as moderate in severity” value ([7]; of 9 AEs) was 1 AEs and the “events judged possibly related to the study drug” value ([7]; of 9 AEs) was 4 events. For the same molecule, the “events judged unrelated to the study drug” value ([7]; of 9 AEs) was “five”, the “subjects reporting adverse events” value ([7]; single 10 mg/kg oral doses) was 5 subjects and the “total adverse events reported” value ([7]; single 10 mg/kg oral doses) was 9 adverse events. For the same molecule, the “serious adverse events (SAEs)” value ([7]; single 10 mg/kg oral doses, healthy subjects, 10 mg/kg) was “no serious adverse events; also recorded: no AEs considered serious” and the “ratio of reduced biopterin to total biopterins during the test period” value [8] was “nearly constant”.

In the case of `C[C@H](O)[C@H](O)[C@H]1CNc2nc(N)[nH]c(=O)c2N1.Cl.Cl` [Polymorph A, (6R)-L-erythro-tetrahydrobiopterin dihydrochloride], the “water content adsorbed (hygroscopicity)” value [1] is reported as “about 3 percent by weight”.
